Measured values taken from US9302999B2, “Substituted triazoles as herbicides” (E. I. DU PONT DE NEMOURS AND COMPANY, priority 2012, dated 2016).

What was measured:
Format in all cases: in vivo
[1] = test system: cocklebur (common cocklebur, Xanthium strumarium); assay: Test E pre-/postemergence: cocklebur; conditions: Preemergence, scale 0 to 100
Text: (§1) Seeds of plant species selected from corn (Zea mays), soybean (Glycine max), velvetleaf (Abutilon theophrasti), lambsquarters (Chenopodium album), poinsettia, wild (wild poinsettia, Euphorbia heterophylla), pigweed, palmer (palmer pigweed, Amaranthus palmeri), waterhemp (common waterhemp, Amaranthus rudis), smartweed (ladysthumb smartweed, Polygonum persicaria), surinam grass (Brachiaria decumbens), crabgrass, large (large crabgrass, Digitaria sanguinalis), crabgrass, Brazil (Brazilian crabgrass, Digitaria horizontalis), panicum, fall (fall panicum, Panicum dichotomiflorum), foxtail, giant (giant foxtail, Setaria faberii), foxtail, green (green foxtail, Setaria viridis), goosegrass (Eleusine indica), johnsongrass (Sorghum halepense), ragweed (common ragweed, Ambrosia elation), barnyardgrass (Echinochloa crus-galli), sandbur (southern sandbur, Cenchrus echinatus), arrowleaf sida (Sida rhombifolia), ryegrass, Italian (Italian ryegrass, Lolium multiflorum), dayflower, (VA) (Virginia dayflower, Commelina virginica), field bindweed (Convolvulus arvensis), cocklebur (common cocklebur, Xanthium strumarium), morningglory (Ipomoea coccinea), nightshade (eastern black nightshade, Solanum ptycanthum), kochia (Kochia scoparia), nutsedge, yellow (yellow nutsedge, Cyperus esculentus) and beggarticks (hairy beggarticks, Bidens pilosa) were planted into a silt loam soil and treated preemergence with test chemicals formulated in a non-phytotoxic solvent mixture which included a surfactant. At the same time, plants selected from these crop and weed species were planted in pots containing a growing medium comprising spaghnum peat moss, vermiculite, wetting agent and starter nutrients and treated with postemergence applications of some of the test chemicals formulated in the same manner. Plants ranged in height from 2 to 18 cm for postemergence treatments (1- to 4-leaf stage).
(§2) Treated plants and controls were maintained in a greenhouse for 14 to 21 days, after which time all species were compared to controls and visually evaluated. Plant response ratings, summarized in Table E, are based on a scale of 0 to 100 where 0 is no effect and 100 is complete control. A dash (-) response means no test result.

[2] = test system: field bindweed (Convolvulus arvensis); assay: Test E pre-/postemergence: field bindweed; conditions: scale 0 to 100
Text: as §1, §2

corn (Zea mays) [3] = assay: Test E pre-/postemergence: corn; conditions: scale 0 to 100
Text: as §1, §2

[4] = test system: ryegrass, Italian (Italian ryegrass, Lolium multiflorum); assay: Test E pre-/postemergence: ryegrass, Italian; conditions: scale 0 to 100
Text: as §1, §2

[5] = test system: field bindweed (Convolvulus arvensis); assay: Test F pre-/postemergence: field bindweed; conditions: Postemergence, scale 0 to 100
Text: (§3) Seeds of plant species selected from corn (Zea mays), soybean (Glycine max), velvetleaf (Abutilon theophrasti), lambsquarters (Chenopodium album), poinsettia, wild (wild poinsettia, Euphorbia heterophylla), pigweed, palmer (palmer pigweed, Amaranthus palmeri), waterhemp (common waterhemp, Amaranthus rudis), surinam grass (Brachiaria decumbens), crabgrass, Brazil (Brazilian crabgrass, Digitaria horizontalis), panicum, fall (fall panicum Panicum dichotomiflorum), crabgrass, large (large crabgrass, Digitaria sanguinalis), foxtail, giant (giant foxtail, Setaria faberii), foxtail, green (green foxtail Setaria viridis), goosegrass (Eleusine indica), ragweed (common ragweed, Ambrosia elatior), barnyardgrass (Echinochloa crus-galli), sandbur (southern sandbur, Cenchrus echinatus), arrowleaf sida (Sida rhombifolia), ryegrass, Italian (Italian ryegrass, Lolium multiflorum), dayflower, VA (Virginia (VA) dayflower, Commelina virginica), field bindweed (Convolvulus arvensis), cocklebur (common cocklebur, Xanthium strumarium), morningglory (Ipomoea coccinea), nightshade (eastern black nightshade, Solanum ptycanthum), kochia (Kochia scoparia), nutsedge, yellow (yellow nutsedge, Cyperus esculentus), johnsongrass (Sorghum halepense), smartweed (ladysthumb smartweed, Polygonum persicaria), and beggarticks (hairy beggarticks, Bidens pilosa), were planted into a silt loam soil and treated preemergence with test chemicals formulated in a non-phytotoxic solvent mixture which included a surfactant. At the same time, plants selected from these crop and weed species and also pigweed (Amaranthus retroflexus), waterhemp_RES1 (ALS/Triazine resistant common waterhemp, Amaranthus rudis) and waterhemp_RES2 (ALS/HPPD resistant common waterhemp, Amaranthus rudis) were planted in pots containing a planting medium comprising spaghnum peat moss, vermiculite, wetting agent and starter nutrients treated with postemergence applications of some of the test chemicals formulated in the same manner. Plants ranged in height from 2 to 18 cm for postemergence treatments (1- to 4-leaf stage).
as §2

corn (Zea mays) [6] = assay: Test F pre-/postemergence: corn; conditions: Postemergence, scale 0 to 100
Text: as §3, §2

| SMILES | Plant response rating: Cocklebur ([1]; 16 g ai/ha) | Plant response rating: Cocklebur ([1]; 31 g ai/ha) | Plant response rating: Cocklebur ([1]; 62 g ai/ha) | Plant response rating: Cocklebur ([1]; 125 g ai/ha) | Plant response rating: Field Bindweed ([2]; Preemergence, 8 g ai/ha) | Plant response rating: Field Bindweed ([2]; Preemergence, 16 g ai/ha) | Plant response rating: Field Bindweed ([2]; Preemergence, 31 g ai/ha) | Plant response rating: Field Bindweed ([2]; Preemergence, 62 g ai/ha) | Plant response rating: Field Bindweed ([2]; Preemergence, 125 g ai/ha) | Plant response rating: Corn (corn (Zea mays) [3]; Preemergence, 8 g ai/ha) | Plant response rating: Corn (corn (Zea mays) [3]; Preemergence, 16 g ai/ha) | Plant response rating: Corn (corn (Zea mays) [3]; Preemergence, 31 g ai/ha) | Plant response rating: Corn (corn (Zea mays) [3]; Preemergence, 62 g ai/ha) | Plant response rating: Corn (corn (Zea mays) [3]; Preemergence, 125 g ai/ha) | Plant response rating: Ryegrass, Italian ([4]; Preemergence, 8 g ai/ha) | Plant response rating: Ryegrass, Italian ([4]; Preemergence, 16 g ai/ha) | Plant response rating: Ryegrass, Italian ([4]; Preemergence, 31 g ai/ha) | Plant response rating: Ryegrass, Italian ([4]; Preemergence, 62 g ai/ha) | Plant response rating: Ryegrass, Italian ([4]; Preemergence, 125 g ai/ha) | also measured |
| --- | --- | --- | --- | --- | --- | --- | --- | --- | --- | --- | --- | --- | --- | --- | --- | --- | --- | --- | --- | --- |
| Cc1nn(-c2ccc(F)cc2)nc1Cc1ccnc(C(F)(F)F)c1 [Compound 16, 4-[[2-(4-fluorophenyl)-5-methyl-2H-1,2,3-triazol-4-yl]methyl]-2-(trifluoromethyl)pyridine] | 0 | 0 | 0 | 0 | 0 | 0 | 0 | 20 | 50 | 0 | 0 | 0 | 20 | 20 | 0 | 0 | 30 | 50 | 98 |  |
| Cc1nn(-c2ccc(C(F)(F)F)cc2)nc1Cc1ccnc(C(F)(F)F)c1 [Compound 47, 4-[[5-methyl-2-[4-(trifluoromethyl)phenyl]-2H-1,2,3-triazol-4-yl]methyl]-2-(trifluoromethyl)pyridine] | 0 | 10 | 20 | 35 |  | 25 | 25 | 50 | 85 |  | 0 | 15 | 20 | 20 |  | 20 | 40 | 70 | 100 | Plant response rating: Cocklebur ([1]; 250 g ai/ha): 50; Plant response rating: Field Bindweed ([2]; Postemergence, 250 g ai/ha): 65; Plant response rating: Field Bindweed ([2]; Postemergence, 31 g ai/ha): 40; Plant response rating: Field Bindweed ([2]; Preemergence, 250 g ai/ha): 100; Plant response rating: Corn (corn (Zea mays) [3]; Postemergence, 250 g ai/ha): 20; Plant response rating: Corn (corn (Zea mays) [3]; Postemergence, 16 g ai/ha): 10; Plant response rating: Corn (corn (Zea mays) [3]; Postemergence, 31 g ai/ha): 15; Plant response rating: Corn (corn (Zea mays) [3]; Postemergence, 62 g ai/ha): 20; Plant response rating: Corn (corn (Zea mays) [3]; Postemergence, 125 g ai/ha): 20; Plant response rating: Corn (corn (Zea mays) [3]; Preemergence, 250 g ai/ha): 25; Plant response rating: Ryegrass, Italian ([4]; Postemergence, 250 g ai/ha): 80; Plant response rating: Ryegrass, Italian ([4]; Postemergence, 16 g ai/ha): 10; Plant response rating: Ryegrass, Italian ([4]; Postemergence, 31 g ai/ha): 20; Plant response rating: Ryegrass, Italian ([4]; Postemergence, 62 g ai/ha): 30; Plant response rating: Ryegrass, Italian ([4]; Postemergence, 125 g ai/ha): 50; Plant response rating: Ryegrass, Italian ([4]; Preemergence, 250 g ai/ha): 100 |
| Cc1nn(-c2ccc(F)cc2)nc1Oc1ccnc(C(F)(F)F)c1 [Compound 129, 4-[[2-(4-fluorophenyl)-5-methyl-2H-1,2,3-triazol-4-yl]oxy]-2-(trifluoromethyl)pyridine] | 0 | 0 | 35 | 35 | 0 | 0 | 0 | 35 | 35 | 0 | 0 | 0 | 10 | 10 | 0 | 25 | 25 | 40 | 60 | Plant response rating: Cocklebur ([1]; 8 g ai/ha): 0 |
| Cc1nn(-c2ccc(F)c(F)c2)nc1Oc1ccnc(C(F)(F)F)c1 [Compound 145] |  |  |  |  |  |  |  |  |  |  |  |  |  |  |  |  |  |  |  | Plant response rating, Field Bindweed ([5]; 8 g ai/ha): 50; Plant response rating, Field Bindweed ([5]; 16 g ai/ha): 60; Plant response rating, Field Bindweed ([5]; 62 g ai/ha): 70; Plant response rating, Field Bindweed ([5]; 125 g ai/ha): 75; Plant response rating, Corn (corn (Zea mays) [6]; 8 g ai/ha): 5; Plant response rating, Corn (corn (Zea mays) [6]; 16 g ai/ha): 10; Plant response rating, Corn (corn (Zea mays) [6]; 31 g ai/ha): 10; Plant response rating, Corn (corn (Zea mays) [6]; 62 g ai/ha): 10; Plant response rating, Corn (corn (Zea mays) [6]; 125 g ai/ha): 10 |
